Assay results: ChEMBL document CHEMBL5252628, “Novel xanthone antibacterials: Semi-synthesis, biological evaluation, and the action mechanisms” (Bioorg Med Chem, 2023)
In brackets after ≈: the same amount, converted by molar mass. Activity calls are given as the source filed them. The calls are words filed in the database; no cut-off is given here.

Columns and labels:
Staphylococcus aureus [1] = experiment: Antibacterial activity against methicillin-resistant Staphylococcus aureus 2 assessed as inhibition of bacterial growth incubated for 18 to 24 hrs by broth microdilution assay; format: functional; settings: time 18-24 hrs
Staphylococcus aureus [2] = experiment: Antibacterial activity against Staphylococcus aureus ATCC 43300 assessed as inhibition of bacterial growth incubated for 18 to 24 hrs by broth microdilution assay; format: functional; settings: time 18-24 hrs
Escherichia coli = experiment: Antibacterial activity against Escherichia coli ATCC 25922 assessed as inhibition of bacterial growth incubated for 18 to 24 hrs by broth microdilution assay; format: functional; settings: time 18-24 hrs
Salmonella enteritidis = experiment: Antibacterial activity against Salmonella enteritidis SM012 assessed as inhibition of bacterial growth incubated for 18 to 24 hrs by broth microdilution assay; format: functional, Salmonella enterica subsp. enterica serovar Enteritidis; settings: Salmonella enterica, time 18-24 hrs
Staphylococcus aureus [3] = experiment: Antibacterial activity against Staphylococcus aureus SH-27 assessed as inhibition of bacterial growth incubated for 18 to 24 hrs by broth microdilution assay; format: functional; settings: time 18-24 hrs
Staphylococcus aureus [4] = experiment: Antibacterial activity against Staphylococcus aureus ATCC 29213 assessed as inhibition of bacterial growth incubated for 18 to 24 hrs by broth microdilution assay; format: functional; settings: time 18-24 hrs
Staphylococcus aureus [5] = experiment: Antibacterial activity against Staphylococcus aureus ATCC 33591 assessed as inhibition of bacterial growth incubated for 18 to 24 hrs by broth microdilution assay; format: functional; settings: time 18-24 hrs
[6] = Hemolytic activity in rabbit RBC assessed as hemolysis incubated for 1 hr by microtiter plate method; format: toxicity, cell-based, Oryctolagus cuniculus, Erythrocyte; settings: red blood cells
A549 = experiment: Cytotoxicity against human A549 cells assessed as reduction in cell viability at 25 ug/ml incubated for 72 hrs by CCK-8 assay; format: toxicity, cell-based; settings: a549, 72 h, dose 25 µg/ml
L02 = experiment: Cytotoxicity against human L02 cells assessed as reduction in cell viability at 25 ug/ml incubated for 72 hrs by CCK-8 assay; format: toxicity, cell-based; settings: l02, 72 h, dose 25 µg/ml
Staphylococcus aureus [7] = experiment: Induction of drug resistance in Staphylococcus aureus ATCC 29213 assessed as fold increase in MIC measured after 20 passage; format: functional
Staphylococcus aureus [8] = experiment: Bactericidal activity against Staphylococcus aureus ATCC 29213 assessed as reduction in colony forming unit at 1 to 8 times MIC incubated for 18 to 24 hrs by time kill assay; format: functional, organism-based; settings: time 18-24 hrs
Staphylococcus aureus [9] = experiment: Bactericidal activity against methicillin-resistant Staphylococcus aureus 2 assessed as reduction in colony forming unit at 1 to 8 times MIC incubated for 18 to 24 hrs by time kill assay; format: functional, organism-based; settings: time 18-24 hrs
Staphylococcus aureus [10] = experiment: Inhibition of biofilm formation in Staphylococcus aureus ATCC 29213 at 4 to 16 microg/ml incubated for 18 to 24 hrs by crystal violet staining based assay; format: functional, organism-based; settings: dose 4-16 µg/ml, time 18-24 hrs
Staphylococcus aureus [11] = experiment: Inhibition of biofilm formation in methicillin-resistant Staphylococcus aureus 2 at 4 to 16 microg/ml incubated for 18 to 24 hrs by crystal violet staining based assay; format: functional, organism-based; settings: dose 4-16 µg/ml, time 18-24 hrs
Staphylococcus aureus [12] = experiment: Antibacterial activity against Staphylococcus aureus ATCC 29213 assessed as cell wall loosening at 5 x MIC incubated for 2 hrs by transmission electron microscopy analysis; format: functional, organism-based
Staphylococcus aureus [13] = experiment: Antibacterial activity against Staphylococcus aureus ATCC 29213 assessed as blurred space in cytoplasm and cell wall at 5 x MIC incubated for 2 hrs by transmission electron microscopy analysis; format: functional, organism-based
Staphylococcus aureus [14] = experiment: Antibacterial activity against Staphylococcus aureus ATCC 29213 assessed as separation of plasma wall at 5 x MIC incubated for 2 hrs by transmission electron microscopy analysis; format: functional, organism-based
Staphylococcus aureus [15] = experiment: Antibacterial activity against Staphylococcus aureus ATCC 29213 assessed as appearance of circular vesicles at 5 x MIC incubated for 2 hrs by transmission electron microscopy analysis; format: functional, organism-based
Staphylococcus aureus [16] = experiment: Antibacterial activity against methicillin-resistant Staphylococcus aureus 2 assessed as cell wall loosening at 5 x MIC incubated for 2 hrs by transmission electron microscopy analysis; format: functional, organism-based
Staphylococcus aureus [17] = experiment: Antibacterial activity against methicillin-resistant Staphylococcus aureus 2 assessed as blurred space in cytoplasm and cell wall at 5 x MIC incubated for 2 hrs by transmission electron microscopy analysis; format: functional, organism-based
Staphylococcus aureus [18] = experiment: Antibacterial activity against methicillin-resistant Staphylococcus aureus 2 assessed as separation of plasma wall at 5 x MIC incubated for 2 hrs by transmission electron microscopy analysis; format: functional, organism-based
Staphylococcus aureus [19] = experiment: Antibacterial activity against methicillin-resistant Staphylococcus aureus 2 assessed as appearance of circular vesicles at 5 x MIC incubated for 2 hrs by transmission electron microscopy analysis; format: functional, organism-based
Cell membrane [20] = experiment: Induction of cell membrane permeability in Staphylococcus aureus ATCC 29213 at 5 x MIC incubated for 2 hrs by TO-PRO-3 reagent flow cytometry assay; format: subcellular
Cell membrane [21] = experiment: Induction of cell membrane permeability in methicillin-resistant Staphylococcus aureus 2 at 5 x MIC incubated for 2 hrs by TO-PRO-3 reagent flow cytometry assay; format: subcellular
Cell membrane [22] = experiment: Induction of membrane depolarization in Staphylococcus aureus ATCC 29213 at 5 x MIC incubated for 2 hrs by DiOC23 dye based based flow cytometry; format: subcellular
Cell membrane [23] = experiment: Induction of membrane depolarization in methicillin-resistant Staphylococcus aureus 2 at 5 x MIC incubated for 2 hrs by DiOC23 dye based based flow cytometry; format: subcellular
Staphylococcus aureus [24] = experiment: Antibacterial activity Staphylococcus aureus ATCC 29213 infected BALB/c mouse assessed as reduction in bacterial burden at 15 mg/kg,iv measured on day 1 and 3 after infection; format: functional, organism-based

SMILES | MIC (Staphylococcus aureus [1]) [µg/mL] | MIC (Staphylococcus aureus [2]) [µg/mL] | MIC (Escherichia coli) [µg/mL] | MIC (Salmonella enteritidis) [µg/mL] | MIC (Staphylococcus aureus [3]) [µg/mL] | MIC (Staphylococcus aureus [4]) [µg/mL] | MIC (Staphylococcus aureus [5]) [µg/mL] | further results
COc1c(OC(=O)C(C)C)cc2oc3cc(OC(=O)C(C)C)c(CC=C(C)C)c(OC(=O)C(C)C)c3c(=O)c2c1CC=C(C)C | > 256 | > 256 | > 256 | > 256 | > 256 | > 256 | > 256 | 
COc1c(O)cc2c(c1CC=C(C)C)Cc1c(cc(O)c(CC=C(C)C)c1O)O2 | 16 (≈ 40.4 µM) | 4 (≈ 10.1 µM) | > 256 | > 256 | 8 (≈ 20.2 µM) | 16 (≈ 40.4 µM) | 8 (≈ 20.2 µM) | HC50 at 1 h [6]: > 500 µg/mL; Activity (A549): Non-Toxic; Activity (L02): Non-Toxic
COc1cc2oc3cc(OC)c(OC)c(CC=C(C)C)c3c(=O)c2c(OC)c1CC=C(C)C | > 256 | > 256 | > 256 | > 256 | > 256 | > 256 | > 256 | 
COc1c(OC(=O)C(C)C)cc2oc3cc(O)c(CC=C(C)C)c(O)c3c(=O)c2c1CC=C(C)C | > 256 | > 256 | > 256 | > 256 | > 256 | > 256 | > 256 | 
COc1c(OCc2ccccc2)cc2oc3cc(OCc4ccccc4)c(CC=C(C)C)c(OCc4ccccc4)c3c(=O)c2c1CC=C(C)C | > 256 | > 256 | > 256 | > 256 | > 256 | > 256 | > 256 | 
Cc1onc(-c2ccccc2)c1C(=O)N[C@@H]1C(=O)N2[C@@H]1SC(C)(C)[C@@H]2C(=O)O [OXACILLIN] |  |  |  |  |  |  |  | fold change (FC) (Staphylococcus aureus [7]): 64
COc1c(OC(C)=O)cc2oc3cc(OC(C)=O)c(CC=C(C)C)c(OC(C)=O)c3c(=O)c2c1CC=C(C)C | > 256 | > 256 | > 256 | > 256 | 16 (≈ 29.8 µM) | 128 (≈ 239 µM) | > 256 | HC50 at 1 h [6]: > 500 µg/mL; Activity (A549): Non-Toxic; Activity (L02): Non-Toxic
COc1c(O)cc2oc3cc(O)c(CC=C(C)C)c(OC(=O)C(C)C)c3c(=O)c2c1CC=C(C)C | 2 (≈ 4.16 µM) | 1 (≈ 2.08 µM) | > 256 | > 256 | 1 (≈ 2.08 µM) | 2 (≈ 4.16 µM) | 1 (≈ 2.08 µM) | HC50 at 1 h [6]: 263 µg/mL; Activity (A549): Non-Toxic; Activity (L02): Non-Toxic
COc1c(O)cc2oc3cc(O)c(CC=C(C)C)c(O)c3c(=O)c2c1CC=C(C)C [MANGOSTIN] | 2 (≈ 4.87 µM) | 1 (≈ 2.44 µM) | > 256 | > 256 | 2 (≈ 4.87 µM) | 2 (≈ 4.87 µM) | 1 (≈ 2.44 µM) | HC50 at 1 h [6]: 26.2 µg/mL; Activity (Staphylococcus aureus [8]): Active; Activity (Staphylococcus aureus [9]): Active; inhibition (Staphylococcus aureus [10]): Dose-Dependent Effect; inhibition (Staphylococcus aureus [11]): Dose-Dependent Effect; Activity (Staphylococcus aureus [12]): Active; Activity (Staphylococcus aureus [13]): Active; Activity (Staphylococcus aureus [14]): Active; Activity (Staphylococcus aureus [15]): Active; Activity (Staphylococcus aureus [16]): Active; Activity (Staphylococcus aureus [17]): Active; Activity (Staphylococcus aureus [18]): Active; Activity (Staphylococcus aureus [19]): Active; Activity (Cell membrane [20]): 100%; Activity (Cell membrane [21]): 100%; Activity (A549): Non-Toxic; Activity (Cell membrane [22]): Active; Activity (Cell membrane [23]): Active; Activity (L02): Non-Toxic
COc1c(O)cc2oc3cc(O)c(CCC(C)C)c(O)c3c(=O)c2c1CCC(C)C | 64 (≈ 154 µM) | 32 (≈ 77.2 µM) | > 256 | > 256 | 64 (≈ 154 µM) | 32 (≈ 77.2 µM) | 64 (≈ 154 µM) | 
C=CCOc1cc2oc3cc(OCC=C)c(OC)c(CC=C(C)C)c3c(=O)c2c(O)c1CC=C(C)C | > 256 | > 256 | > 256 | > 256 | > 256 | > 256 | > 256 | 
COc1c(OC(C)=O)cc2oc3cc(OC(C)=O)c(CC=C(C)C)c(O)c3c(=O)c2c1CC=C(C)C | > 256 | > 256 | > 256 | > 256 | > 256 | > 256 | > 256 | 
COc1c(OCCCCCCO)cc2oc3cc(O)c(CC=C(C)C)c(O)c3c(=O)c2c1CC=C(C)C | > 256 | > 256 | > 256 | > 256 | > 256 | > 256 | > 256 | 
COc1c(OC(=O)C(C)C)cc2oc3cc(OC(=O)C(C)C)c(CC=C(C)C)c(O)c3c(=O)c2c1CC=C(C)C | > 256 | > 256 | > 256 | > 256 | > 256 | > 256 | > 256 | 
C=CCOc1cc2oc3cc(O)c(CC=C(C)C)c(O)c3c(=O)c2c(CC=C(C)C)c1OC | > 256 | 256 (≈ 568 µM) | > 256 | > 256 | 2 (≈ 4.44 µM) | > 256 | 256 (≈ 568 µM) | HC50 at 1 h [6]: 403 µg/mL; Activity (A549): Non-Toxic; Activity (L02): Non-Toxic
COc1c(O)cc2oc3cc(OC(C)=O)c(CC=C(C)C)c(O)c3c(=O)c2c1CC=C(C)C | > 256 | > 256 | > 256 | > 256 | > 256 | > 256 | > 256 | 
COc1c(O)cc2oc3cc(OC(=O)C(C)C)c(CC=C(C)C)c(O)c3c(=O)c2c1CC=C(C)C | > 256 | > 256 | > 256 | > 256 | > 256 | > 256 | > 256 | 
C=CCOc1cc2oc3cc(OCC=C)c(OC)c(CC=C(C)C)c3c(=O)c2c(OC(C)=O)c1CC=C(C)C | > 256 | > 256 | > 256 | > 256 | > 256 | > 256 | > 256 | 
COc1c(O)cc2oc3cc4c(c(O)c3c(=O)c2c1CC=C(C)C)CCC(C)(C)O4 | 64 (≈ 156 µM) | 64 (≈ 156 µM) | > 256 | > 256 | 64 (≈ 156 µM) | 64 (≈ 156 µM) | 32 (≈ 78 µM) | 
C=CCOc1cc2oc3cc(OCC=C)c(OC)c(CC=C(C)C)c3c(=O)c2c(OC(=O)C(C)C)c1CC=C(C)C | > 256 | > 256 | > 256 | > 256 | > 256 | > 256 | > 256 | 
COc1c(OCCCCCCO)cc2oc3cc(OCCCCCCO)c(CC=C(C)C)c(O)c3c(=O)c2c1CC=C(C)C | > 256 | > 256 | > 256 | > 256 | > 256 | > 256 | > 256 | 
CCN1CCN(c2cc3c(cc2F)c(=O)c(C(=O)O)cn3C2CC2)CC1 [ENROFLOXACIN] | 32 (≈ 89 µM) |  | 0.0156 (≈ 0.0434 µM) |  | 128 (≈ 356 µM) | 0.06 (≈ 0.167 µM) |  | Activity (Staphylococcus aureus [24]): Active
